Reference: patent publication US20030206876A1, “Composition” (priority 2000, published 2003)

Tested on: oral bacteria (production of volatile sulfur compounds from cysteine)
Experiment: cysteine challenge method for halitosis (oral malodor) efficacy, VSC response measured with Halimeter
Type: in vivo
Description: The ability of low doses of chlorhexidine to combat halitosis (oral malodor) was assessed using the cysteine challenge method. This measures the ability of oral bacteria to produce volatile sulfur compounds (VSC), the major odor component of oral malodor, from cysteine and is correlated with organoleptic evaluation by odor judges. Testing consists of rinsing the mouth with 5 ml of 6 mM cysteine for 30 seconds and measuring the resulting the VSC response (mainly hydrogen sulphide) with a chemical sensor instrument such as the Halimeter. Cysteine challenge testing consisted of the obtaining of an initial baseline VSC determination, the subsequent introduction of the cysteine challenge substrate, measuring the VSC response over a 20 minute period, introducing the test rinse and at set times thereafter, repeating the cysteine challenge for up to 7 hours. Inhibition was assessed quantitatively by the degree of inhibition of VSC production from cysteine by the test agent, chlorhexidine digluconate, as compared to VSC production from cysteine at baseline. Duration of the inhibition was assessed as the time it takes for VSC production with successive cysteine challenges to return to that seen at baseline.

[H]/N=C(\N/C(=N/[H])NCCCCCCNC(=N)NC(=N)Nc1ccc(Cl)cc1)Nc1ccc(Cl)cc1 [chlorhexidine digluconate]
inhibition of production of VSCs at lower concentrations (chlorhexidine digluconate 0.020, 0.015, 0.0125 and 0.010% by weight of the composition): Similarly advantageous results
time after the rinse at which most inhibition of VSC production was seen (mouthrinse, chlorhexidine digluconate 0.025% (v/v)): two
inhibition of production of VSCs from cysteine compared to baseline (mouthrinse, chlorhexidine digluconate 0.025% (v/v), cysteine challenge 5 ml of 6 mM cysteine for 30 seconds): significantly inhibit
duration of the inhibition of VSC production from the initial rinse (gradually decreasing levels) (mouthrinse, chlorhexidine digluconate 0.025% (v/v), successive cysteine challenges for up to 7 hours): over 7 hours
